Results taken from PubChem BioAssay (NCI).
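48-hour exposure; five concentrations; linearly interpolated endpoints. At the TGI there is no net growth.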

Experiments:
Experiment in all cases: NCI anticancer screen, dose series, 48 h
HOP-92 NSCLC = tested on: HOP-92 NSCLC
MDA-MB-231 breast = tested on: MDA-MB-231 breast
NCI-H522 lung = tested on: NCI-H522 lung
MOLT-4 leukemia = tested on: MOLT-4 leukemia
HL-60(TB) leukemia = tested on: HL-60(TB) leukemia
MALME-3M melanoma = tested on: MALME-3M melanoma
KM12 colon = tested on: KM12 colon
SF-539 CNS = tested on: SF-539 CNS
MDA-N = tested on: MDA-N
SF-268 CNS = tested on: SF-268 CNS
SNB-19 CNS = tested on: SNB-19 CNS
A498 renal = tested on: A498 renal
TK-10 renal = tested on: TK-10 renal
HS 578T breast = tested on: HS 578T breast
HCT-116 colon = tested on: HCT-116 colon
HOP-62 NSCLC = tested on: HOP-62 NSCLC
CAKI-1 renal = tested on: CAKI-1 renal
A549 NSCLC = tested on: A549 NSCLC
SR leukemia = tested on: SR leukemia

| Compound | TGI (HOP-92 NSCLC) [µM] | TGI (MDA-MB-231 breast) [µM] | TGI (NCI-H522 lung) [µM] | TGI (MOLT-4 leukemia) [µM] | TGI (HL-60(TB) leukemia) [µM] | TGI (MALME-3M melanoma) [µM] | TGI (KM12 colon) [µM] | TGI (SF-539 CNS) [µM] | TGI (MDA-N) [µM] | TGI (SF-268 CNS) [µM] | TGI (SNB-19 CNS) [µM] | TGI (A498 renal) [µM] | TGI (TK-10 renal) [µM] | TGI (HS 578T breast) [µM] | TGI (HCT-116 colon) [µM] | TGI (HOP-62 NSCLC) [µM] | TGI (CAKI-1 renal) [µM] | TGI (A549 NSCLC) [µM] | TGI (SR leukemia) [µM] |
| --- | --- | --- | --- | --- | --- | --- | --- | --- | --- | --- | --- | --- | --- | --- | --- | --- | --- | --- | --- |
| O=C(CCc1cccc(O)c1)NCCc1cccc(OCc2ccccc2)c1 | 33.8 | 40.7 | 33.4 | 43.5 | > 100 | 39.2 | 21.3 | 30.7 | 39 | 43 | 63.7 | > 55.2 | 55.2 | 40.3 | 30.3 | 30.6 | > 72.2 | > 70.9 | > 71.6 |
| CC(OCc1ccccc1)C(NC(=O)C1CSSCC(NC(=O)C(Cc2ccccc2)NC(=O)OCc2ccccc2)C(=O)NC(Cc2ccccc2)C(=O)NC(Cc2cn(C=O)c3ccccc23)C(=O)NC(CCCCNC(=O)OCc2ccccc2)C(=O)NC(C(C)OCc2ccccc2)C(=O)N1)C(N)=O (configuration not stated) | > 100 | 37.3 | 38.5 | > 37.9 | 2.89 | > 90.4 | > 55.5 | > 100 | > 100 | > 100 | > 100 | 63.5 | > 84.8 | > 100 | 98.7 | > 100 | > 100 | > 100 | > 93.4 |
| CC(=O)O/C=C\OC1CCCC1 | > 100 | > 100 | > 100 | > 100 | > 100 | > 100 | > 100 | > 100 | > 100 | > 100 | > 100 | > 100 | > 100 | > 100 |  | > 100 | > 100 | > 100 | > 100 |
| O=C1CSC(/C=C/c2ccccc2)N1c1ccc(-n2c(-c3ccccc3)nc3ccccc3c2=O)cc1 (configuration not stated) | > 100 | > 100 | > 100 | > 100 | > 100 | > 100 | > 100 | > 100 | > 100 | > 100 | > 100 | > 100 | > 100 | > 100 | > 100 | > 100 | > 100 | > 100 | > 100 |
| O=C(O)c1cc(N(Cc2ccccc2O)Cc2cc(O)ccc2O)ccc1O | > 100 | > 100 |  | > 100 | > 100 | > 100 | > 100 | > 100 | > 100 | > 100 | > 100 | > 100 | > 100 | > 100 | > 100 | > 100 |  | > 100 | > 100 |
| O=c1c2ncn(CCCl)c2n(-c2ccccc2)c(=S)n1-c1ccccc1 | > 100 | > 100 | > 100 | > 100 | > 100 | > 100 | > 100 | > 100 | > 100 | > 100 | > 100 | > 100 | > 100 | > 100 | > 100 | > 100 | > 100 | > 100 | > 100 |
| COc1ccc(Nc2nc3ccccc3nc2C(=O)O)cc1 | > 100 | > 100 | > 100 | > 100 | > 100 | > 100 | > 100 | > 100 | > 100 | > 100 | > 100 | > 100 | > 100 | 85.9 | > 100 | > 100 | > 100 | > 100 | > 100 |
| CNC(=O)OCCN1c2ccccc2Sc2ccccc21 | > 100 | 89.5 | > 100 | > 100 | > 100 | > 100 | > 100 | > 100 | > 100 | > 100 | > 100 | > 100 | > 100 | > 100 | > 100 | 89.2 | > 100 | > 100 | > 100 |
| O=C(NC/C(Cl)=C/Cl)Nc1cccc2c1CCCC2 | > 100 | > 100 | > 100 | > 100 |  | > 100 | > 100 | > 100 | > 100 | > 100 | > 100 | > 100 | > 100 | > 100 | > 100 | > 100 | > 100 | > 100 | > 100 |
| N#CC(c1ccccc1)(c1ccccc1)[C@@H](c1ccccc1)[C@H](Cc1ccccc1)NS(=O)(=O)c1ccccc1 |  | > 100 | > 100 | > 100 | > 100 | > 100 | > 100 | > 100 | > 100 | > 100 | > 100 | > 100 | > 100 | > 100 | > 100 | > 100 | > 100 | > 100 | > 100 |
| NCCc1ccc2c(c1)C(=O)c1c(O)ccc(O)c1C2=O | > 100 | > 27.8 |  | > 100 | 5.34 | 4.75 | > 100 | 7.97 | > 100 | 25.3 | 29.6 | > 100 | > 100 | > 100 | > 40.3 | 13.4 | > 84.3 | > 45.4 | > 100 |
| CCOC(=O)CC(N1CC1)N1CC1 |  | > 10 | > 10 | > 10 | > 10 | > 10 | > 10 | > 10 | > 10 | > 10 | > 10 | > 10 | > 10 | > 10 | > 10 | > 10 | > 10 | > 10 | > 10 |
| FC(F)(F)C1(C(F)(F)F)C2CCC3(CC(F)(F)C(F)(F)S3)C1C2 (configuration not stated) |  | > 100 | > 100 | 46.4 | 51.8 | 95.1 | > 100 | > 100 | > 100 | > 100 | > 100 | > 100 | > 100 | > 100 | 42.5 | > 100 | > 100 | > 100 | 44.1 |
| Cc1cc(C)c2c(c1)C(=O)C1(C2)Cc2c(ccc(C)c2C)C1=O (configuration not stated) | > 100 | > 100 | > 100 | > 100 | > 100 | > 100 | > 100 | > 100 | > 100 | > 100 | > 100 | > 100 | > 100 | > 100 | > 100 |  | > 100 | > 100 | > 100 |
| O=C(NNC(=O)c1ccccc1Cl)c1ccccc1O |  | > 100 | 99.2 | > 100 |  | > 100 | > 100 | > 100 | > 100 | > 100 | > 100 | > 100 | > 100 | > 100 | > 100 | > 100 | > 100 | > 100 | > 100 |
| CCOC(=O)c1c(N2CCOCC2)[nH]c(=O)c(C(c2ccc(Cl)c([N+](=O)[O-])c2)c2c(O)c(C(=O)OCC)c(N3CCOCC3)[nH]c2=O)c1O | 69.4 | 41.9 | 55.2 | 57.8 |  | > 100 | > 100 | 59.7 | 70.1 | > 100 | 79.3 | > 100 | > 100 | > 100 | 63.6 | > 100 | > 100 | > 100 | > 100 |
| CN(CC#N)C(=O)Cc1ccc([N+](=O)[O-])cc1 |  | > 10 |  | > 10 | > 10 | > 10 | > 10 | > 10 | > 10 | > 10 | > 10 | > 10 | > 10 | > 10 | > 10 | > 10 | > 10 | > 10 | > 10 |
| CC1(C)C(=O)C2(C#N)CCC1C2 (configuration not stated) | > 100 | > 100 |  | > 100 | > 100 | > 100 | > 100 | > 100 | > 100 | > 100 | > 100 | > 100 | > 100 | > 100 | > 100 | > 100 | > 100 | > 100 | > 100 |
| COc1ccc(C(=O)c2ccc(-n3c4ccccc4c4ccc5c(c43)C(=O)C=CC5=O)cc2)cc1 | 8.66 | 5.22 | 0.936 | > 100 |  |  | 10 | 5.78 | 7.89 | 2.33 | 11 | 5.09 | 3.76 | 4.51 | 2.77 | 28.7 | 0.366 | 10.8 | > 100 |
| Cc1cc(=O)oc2c(CNC(C(=O)O)C(C)O)c(O)ccc12 (configuration not stated) | > 100 | > 100 | > 100 | > 100 | > 100 | > 100 | > 100 | > 100 | > 100 | > 100 | > 100 |  | > 100 | > 100 | > 100 | > 100 | > 100 | > 100 | > 100 |
